# From patent publication US12139475B2, “2-oxindole compounds” (CHEMOCENTRYX, INC., priority 2016, dated 2024)
# Biological target: T1, CCR(9) (Homo sapiens, UniProt P51686)
# T1 construct: MOLT-4 cells were collected by centrifugation at 400×g at room temperature, then suspended at 50 million/ml in human serum; host or cells: MOLT-4
# T1 sequence (P51686 1-369): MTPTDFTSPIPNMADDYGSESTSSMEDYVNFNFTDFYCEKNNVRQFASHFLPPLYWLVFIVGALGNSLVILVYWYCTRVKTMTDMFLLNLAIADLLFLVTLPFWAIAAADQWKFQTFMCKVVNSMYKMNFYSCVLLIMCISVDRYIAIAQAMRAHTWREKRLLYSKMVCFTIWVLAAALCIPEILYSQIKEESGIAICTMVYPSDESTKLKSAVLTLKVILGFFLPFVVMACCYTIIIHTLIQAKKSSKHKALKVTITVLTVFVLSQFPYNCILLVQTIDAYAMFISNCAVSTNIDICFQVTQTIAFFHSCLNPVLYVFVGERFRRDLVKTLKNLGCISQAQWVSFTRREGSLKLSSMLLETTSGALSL
# Test: Serum chemotaxis assay (MOLT-4 cells, TECK-induced migration, ChemoTX)
# Assay type: cell-based
# Details: MOLT-4 cells in human serum, migration to recombinant human TECK, 90 minutes at 37° C.
# Experimental: MOLT-4 cells were obtained from the American Type Culture Collection (Manassas, VA) and cultured in RPMI tissue culture medium supplemented with 10% fetal calf serum (FCS) in a humidified 5% CO2 incubator at 37° C. Recombinant human chemokine proteins TECK was obtained from R&D Systems (Minneapolis, MN). ChemoTX™ chemotaxis microchambers were purchased from Neuro Probe (Gaithersburg, MD). CyQUANT™ cell proliferation kits were purchased from Molecular Probes (Eugene, Oregon). Calcium indicator dye Fluo-4 AM was purchased from Molecular Devices (Mountain View, CA).
# A serum chemotaxis assay was used to determine the efficacy of potential receptor antagonists at blocking the migration mediated through chemokine receptors, such as CCR(9). This assay was performed using the ChemoTX® microchamber system with a 5-μm pore-sized polycarbonate membrane. MOLT-4 cells were collected by centrifugation at 400×g at room temperature, then suspended at 50 million/ml in human serum, containing 50 mM HEPES (final pH of 7.2). The compound being tested or an equivalent volume of its solvent (DMSO) was then added to the cell/serum mixture at a final DMSO concentration of 0.125% (v/v), and this mixture was then incubated together at 37° C. for one hour. Separately, recombinant human TECK was diluted with chemotaxis buffer (HBSS+0.1% BSA), generally spanning a range from 0.1 nM to 500 nM, after which 29 μl of diluted chemokine was placed in the lower wells of the ChemoTX® plate. The 5-μm (pore size) polycarbonate membrane was placed onto the plate, and 20 μL of the cell/compound mixture was transferred onto each well of the membrane. The plates were incubated at 37° C. for 90 minutes, after which the polycarbonate membranes were removed and 5 μl of the DNA-intercalating agent CyQUANT (Invitrogen, Carlsbad, CA) was added to the lower wells. The amount of fluorescence, corresponding to the number of migrated cells, was measured using a Spectrafluor Plus plate reader (TECAN, San Jose, CA).
# The A2 values were calculated from the following equation, comparing the efficacy of the test compound with that of the DMSO-only control at equi-active chemokine levels: Log(A2)=log[drug(M)]−log[(A′/A)−1] where A reflects the potency of the agonist in the absence of antagonist and A′ reflects the potency of the agonist in the presence of antagonist at a given concentration of drug ([drug(M)]). In Vivo Efficacy Models for Human IBD
row,Structure (SMILES),Chemotaxis A2
1,CC1(c2ccc(C3(C#N)CC3)cc2)C(=O)N(c2cccc(C(=O)O)c2)c2ccc(Cl)cc21 (stereo not drawn),++ (500 nM > A2 ≥ 100 nM)
2,CC(C)(C)c1ccc(C2(C)C(=O)N(c3cccc(C(=O)O)c3)c3ccc(Cl)cc32)cc1F (stereo not drawn),+++ (100 nM > A2)
3,Cc1ccc2c(c1)C(C)(c1ccc(C(C)(C)C)cc1)C(=O)N2c1ccc(C(=O)O)cc1 (stereo not drawn),++ (500 nM > A2 ≥ 100 nM)
4,CC1(c2ccc(Cl)cc2)C(=O)N(c2cccc(C(=O)O)c2)c2ccc(Cl)cc21 (stereo not drawn),+ (20000 nM ≥ A2 ≥ 500 nM)
5,CC1(c2ccc(C3(C)C(=O)N(c4cccc(C(=O)O)c4)c4ccc(Cl)cc43)cc2)CC1 (stereo not drawn),+++ (100 nM > A2)
6,CC(C)(C)c1ccc(C2(C)C(=O)N(c3cccc(C(=O)O)c3)c3cc(Cl)ccc32)cc1 (stereo not drawn),++ (500 nM > A2 ≥ 100 nM)
7,Cc1ccc2c(c1)N(c1cccc(C(=O)O)c1)C(=O)C2(C)c1ccc(C(C)(C)C)cc1 (stereo not drawn),++ (500 nM > A2 ≥ 100 nM)
8,CC(C)(C)c1ccc(C2(C)C(=O)N(c3ccc(C(=O)O)cc3F)c3ccc(Cl)cc32)cc1 (stereo not drawn),++ (500 nM > A2 ≥ 100 nM)
9,COc1ccc(C2(C)C(=O)N(c3cccc(C(=O)O)c3)c3ccc(Cl)cc32)cc1F (stereo not drawn),+ (20000 nM ≥ A2 ≥ 500 nM)
10,"CC1(C)CCc2cc([C@]3(C)C(=O)N(c4ccc(Cn5nn[nH]c5=O)cc4)c4ccc(Cl)cc43)ccc2O1 [(S)-5-chloro-3-(2,2-dimethylchroman-6-yl)-3-methyl-1-(4-((5-oxo-4,5-dihydro-1H-tetrazol-1-yl)methyl)phenyl)indolin-2-one]",+++ (100 nM > A2)
11,Cc1cc(C2(C)C(=O)N(c3cccc(C(=O)O)c3)c3ccc(Cl)cc32)ccc1C(C)(C)C (stereo not drawn),++ (500 nM > A2 ≥ 100 nM)
12,Cc1ccc2c(c1)C(C)(c1ccc(C(C)(C)C)cc1)C(=O)N2c1cccc(C(=O)O)c1 (stereo not drawn),++ (500 nM > A2 ≥ 100 nM)
13,CC(C)(C)c1ccc(C2(C)C(=O)N(c3ccccc3C(=O)O)c3ccc(Cl)cc32)cc1 (stereo not drawn),++ (500 nM > A2 ≥ 100 nM)
14,CC1(c2ccc(C(C)(C)C(C)(F)F)cc2)C(=O)N(c2cccc(C(=O)O)c2)c2ccc(Cl)cc21 (stereo not drawn),+ (20000 nM ≥ A2 ≥ 500 nM)
15,CC(C)Oc1ccc(C2(C)C(=O)N(c3ccc(C(=O)O)cc3)c3ccc(Cl)cc32)cc1 (stereo not drawn),+++ (100 nM > A2)
16,CC(C)(C)c1ccc(C2(C)C(=O)N(c3cccc(C(=O)O)n3)c3ccc(Cl)cc32)cc1 (stereo not drawn),++ (500 nM > A2 ≥ 100 nM)
17,Cc1cc(C(C)(C)C)ccc1C1(C)C(=O)N(c2cccc(C(=O)O)c2)c2ccc(Cl)cc21 (stereo not drawn),+++ (100 nM > A2)
18,Cc1ccc2c(c1)C(C)(c1ccc(C(C)(C)C)c(F)c1)C(=O)N2c1cccc(C(=O)O)c1 (stereo not drawn),+++ (100 nM > A2)
19,CC(C)(C)c1ccc(C2(C)C(=O)N(c3cccc(C(=O)O)c3)c3ccc(OC(F)(F)F)cc32)cc1 (stereo not drawn),+++ (100 nM > A2)
20,Cc1cc(C(C)(C)C)ccc1C1(C)C(=O)N(c2ccc(C(=O)O)cc2)c2ccc(Cl)cc21 (stereo not drawn),++ (500 nM > A2 ≥ 100 nM)
21,CC(C)(C)c1ccc(C2(C)C(=O)N(c3cc(C(=O)O)ccc3F)c3ccc(Cl)cc32)cc1 (stereo not drawn),++ (500 nM > A2 ≥ 100 nM)
22,CC(C)(C)c1ccc(C2(C)C(=O)N(c3cccc(C(=O)O)c3)c3cc(Cl)ccc32)cc1F (stereo not drawn),+ (20000 nM ≥ A2 ≥ 500 nM)
23,Cc1cc(C2(C)C(=O)N(c3cccc(C(=O)O)c3)c3ccc(Cl)cc32)ccc1OC(C)C (stereo not drawn),++ (500 nM > A2 ≥ 100 nM)
24,CC(C)(C)c1ccc(C2(C)C(=O)N(c3ccnc(C(=O)O)c3)c3ccc(Cl)cc32)cc1 (stereo not drawn),++ (500 nM > A2 ≥ 100 nM)

# Second part, the molecule after the results:
row,Chemotaxis A2,Structure (SMILES)
1,+++ (100 nM > A2),CC1(C)CCc2cc([C@]3(C)C(=O)N(c4cccc(C(C)(C)C(=O)O)c4)c4ccc(Cl)cc43)ccc2O1
2,+++ (100 nM > A2),COc1ccc(CN2C(=O)[C@@](C)(c3ccc4c(c3)CCC(C)(C)O4)c3cc(Cl)ccc32)cc1C(=O)O
3,+++ (100 nM > A2),Cc1cc(CN2C(=O)[C@@](C)(c3ccc4c(c3)CCC(C)(C)O4)c3cc(Cl)ccc32)ccc1C(=O)O
4,+++ (100 nM > A2),Cc1ccc(N2C(=O)[C@@](C)(c3ccc4c(c3)CCC(C)(C)O4)c3cc(Cl)ccc32)cc1C(=O)O
5,+++ (100 nM > A2),Cc1ccc2c(c1)[C@](C)(c1ccc3c(c1)CCC(C)(C)O3)C(=O)N2c1ccc(C(=O)O)cc1
6,+++ (100 nM > A2),"COc1ccc(N2C(=O)C(C)(c3ccc4c(c3)CCC(C)(C)O4)c3cc(Cl)ccc32)cc1C(=O)O (stereo in doubt) [5-[(3R)-5-chloro-3-(2,2-dimethylchroman-6-yl)-3-methyl-2-oxo-indolin-1-yl]-2-methoxy-benzoic acid]"
7,+++ (100 nM > A2),CC1(C)CCc2cc(C3(C)C(=O)N(c4cccc(C(=O)O)c4)c4ccc(C#N)cc43)ccc2O1 (stereo not drawn)
8,+++ (100 nM > A2),CC1(C)CCc2cc([C@]3(C)C(=O)N(c4ccc(Cl)c(C(=O)O)c4)c4ccc(Cl)cc43)ccc2O1
9,+++ (100 nM > A2),COc1ccc(C(=O)O)c(CN2C(=O)[C@@](C)(c3ccc4c(c3)CCC(C)(C)O4)c3cc(Cl)ccc32)c1
10,+++ (100 nM > A2),"CC1(C)CCc2cc(C3(C)C(=O)N(c4cccc(C(=O)O)c4)c4ccc(Cl)cc43)ccc2O1 (stereo in doubt) [3-[(3R)-5-chloro-3-(2,2-dimethylchroman-6-yl)-3-methyl-2-oxo-indolin-1-yl]benzoic acid]"
11,+++ (100 nM > A2),CC(c1cccc(C(=O)O)c1)N1C(=O)[C@@](C)(c2ccc3c(c2)CCC(C)(C)O3)c2cc(Cl)ccc21 (stereo partly drawn)
12,+++ (100 nM > A2),CC1(C)CCc2cc([C@]3(C)C(=O)N(c4cccc(CC(=O)O)c4)c4ccc(Cl)cc43)ccc2O1
13,+++ (100 nM > A2),CCc1ccc2c(c1)C(C)(c1ccc3c(c1)CCC(C)(C)O3)C(=O)N2c1cccc(C(=O)O)c1 (stereo not drawn)
14,+++ (100 nM > A2),CCOc1ccc(N2C(=O)[C@@](C)(c3ccc4c(c3)CCC(C)(C)O4)c3cc(Cl)ccc32)cc1C(=O)O
15,+++ (100 nM > A2),CC1(C)CCc2cc([C@]3(C)C(=O)N(c4ccc(CCC(=O)O)cc4)c4ccc(Cl)cc43)ccc2O1
16,+++ (100 nM > A2),CC1(C)CCc2cc(C3(C)C(=O)N(c4cccc(C(=O)O)c4)c4ccc(OC(F)(F)F)cc43)ccc2O1 (stereo not drawn)
17,+++ (100 nM > A2),COc1cc(C(=O)O)cc(N2C(=O)[C@@](C)(c3ccc4c(c3)CCC(C)(C)O4)c3cc(Cl)ccc32)c1
18,+++ (100 nM > A2),CC1(C)CCc2cc([C@]3(C)C(=O)N(Cc4ccc(F)c(C(=O)O)c4)c4ccc(Cl)cc43)ccc2O1
19,+++ (100 nM > A2),CC1(C)CCc2cc([C@]3(C)C(=O)N(Cc4ccc(F)cc4C(=O)O)c4ccc(Cl)cc43)ccc2O1
20,+++ (100 nM > A2),CC1(C)CCc2cc([C@]3(C)C(=O)N(c4ccc(OCC(=O)O)cc4)c4ccc(Cl)cc43)ccc2O1
21,+++ (100 nM > A2),CCc1ccc(N2C(=O)[C@@](C)(c3ccc4c(c3)CCC(C)(C)O4)c3cc(Cl)ccc32)cc1C(=O)O
22,+++ (100 nM > A2),"CC1(C)CCc2cc(C3(C)C(=O)N(c4ccc(CC(=O)O)cc4)c4ccc(Cl)cc43)ccc2O1 (stereo in doubt) [2-[4-[(3R)-5-chloro-3-(2,2-dimethylchroman-6-yl)-3-methyl-2-oxo-indolin-1-yl]phenyl]acetic acid]"
23,++ (500 nM > A2 ≥ 100 nM),CC1(C)CCc2cc(C3(C)C(=O)N(c4cccc(C(=O)O)c4)c4cc(Cl)ccc43)ccc2O1 (stereo not drawn)
24,+++ (100 nM > A2),CC(C(=O)O)c1cccc(N2C(=O)[C@@](C)(c3ccc4c(c3)CCC(C)(C)O4)c3cc(Cl)ccc32)c1 (stereo partly drawn)
25,+++ (100 nM > A2),Cc1ccc2c(c1)[C@](C)(c1ccc3c(c1)CCC(C)(C)O3)C(=O)N2c1cccc(C(=O)O)c1
26,+++ (100 nM > A2),Cc1ccc(CN2C(=O)[C@@](C)(c3ccc4c(c3)CCC(C)(C)O4)c3cc(Cl)ccc32)cc1C(=O)O
27,+++ (100 nM > A2),CC1(C)CCc2cc([C@]3(C)C(=O)N(c4ccc(C(=O)O)c(F)c4)c4ccc(Cl)cc43)ccc2O1
